Earlier results on 2 molecules are cited in patent US20090191608A1, “Pancreatic Islet Cell Preparation and Transplantation” (Baylor Research Institute, priority 2008, published 2009).

For series [1] the following is noted: in vivo.

As for `CO[C@H]1C[C@@H]2CC[C@@H](C)[C@@](O)(O2)C(=O)C(=O)N2CCCC[C@H]2C(=O)O[C@H]([C@H](C)C[C@@H]2CC[C@@H](O)[C@H](OC)C2)CC(=O)[C@H](C)/C=C(\C)[C@@H](O)[C@@H](OC)C(=O)[C@H](C)C[C@H](C)/C=C/C=C/C=C/1C` [Sirolimus], for the setting “most common side effect”, the “Occurrence of mouth ulcers” value was “up to 85%”. In series [1], the Half-life result is “approximately 3 days” and the “Time to reach a new steady-state level after the change of dose” value is listed as 2 weeks.

As to Enoxaparin [Lovenox], the “Incidence of heparin-induced thrombocytopenia” value (in vivo) is 0.2%.
